According to US20240409556A1, “BENZOPIPERAZINE AND RELATED ANALOGS FOR INHIBITING YAP/TAZ-TEAD” (Springworks Therapeutics, Inc., priority 2023, published 2024):

System: YAP/TAZ-TEAD transcription
Assay: Reporter gene assay for measuring the inhibition of YAP/TAZ-TEAD transcription (TEAD-responsive element luciferase reporter in Hek293T cells)
Assay type: cell-based
Conditions: 24 hours incubation
Method in brief: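 HEK293T cells transiently transfected with a TEAD-responsive luciferase reporter were exposed to compounds for 24 h at 37° C/5% CO2, then luminescence was read. Percent inhibition normalised to vehicle (0%) and positive-control inhibitor (100%); IC50 derived.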

IC50 | SMILES
< 1 µM | CC(=O)N1CC(=O)N2c3ccccc3N(c3ccc(C(F)(F)F)cc3)CC2C1 (single isomer, unassigned) [79-En2, (R)- or (S)-3-acetyl-6-(4-(trifluoromethyl)phenyl)-2,3,4,4a,5,6-hexahydro-1H-pyrazino[1,2-a]quinoxalin-1-one]

Same assay, conditions: Homo sapiens, HEK-293T, 24 h, 24 hours incubation

SMILES | IC50
CC(=O)NCCN1CCN(c2ccc(C(F)(F)F)cc2)c2ccccc21 [compound 57, N-(2-(4-(4-(trifluoromethyl)phenyl)-3,4-dihydroquinoxalin-1(2H)-yl)ethyl)acetamide] | < 1 µM
O=Cc1ccc(CN2CCN3c4ccccc4N(c4ccc(C(F)(F)F)cc4)CC3C2)cc1O (centres unmarked) [compound 30, 2-hydroxy-4-((6-(4-(trifluoromethyl)phenyl)-1,2,4,4a,5,6-hexahydro-3H-pyrazino[1,2-a]quinoxalin-3-yl)methyl)benzaldehyde] | 1 to 10 µM
NC(=O)C1CCN2c3ccccc3N(c3ccc(C(F)(F)F)cc3)CC2C1 (stereo not drawn) [117B-En1, (cis)- or (trans)-5-(4-(trifluoromethyl)phenyl)-6,6a,7,8,9,10-hexahydro-5H-pyrido[1,2-a]quinoxaline-8-carboxamide] | < 1 µM
C=CC(=O)N1CCN2c3nccnc3N(c3ccc(C(F)(F)F)cc3)CC2C1 (centres unmarked) [compound 41, 1-(5-(4-(trifluoromethyl)phenyl)-5,6,6a,7,9,10-hexahydro-8H-dipyrazino[1,2-a:2′,3′-e]pyrazin-8-yl)prop-2-en-1-one] | < 1 µM
CN1CCN2c3ccccc3N(c3ccc(C(F)(F)F)cc3)CC2C1 (centres unmarked) [compound 26, 3-methyl-6-(4-(trifluoromethyl)phenyl)-2,3,4,4a,5,6-hexahydro-1H-pyrazino[1,2-a]quinoxaline] | 1 to 10 µM

Next, values leading:

IC50 | SMILES
< 1 µM | C=CC(=O)NCC1CN(c2ccc(C(F)(F)F)cc2)c2ccccc2N1CCC(=O)NC (centres unmarked) [compound 9, N-((1-(3-(methylamino)-3-oxopropyl)-4-(4-(trifluoromethyl)phenyl)-1,2,3,4-tetrahydroquinoxalin-2-yl)methyl)acrylamide]
> 10 µM | CC(=O)NCC1CN(c2ccc(C(F)(F)F)cc2)c2cccnc2S1(=O)=O (centres unmarked) [compound 58, N-((4,4-dioxido-1-(4-(trifluoromethyl)phenyl)-2,3-dihydro-1H-pyrido[2,3-b][1,4]thiazin-3-yl)methyl)acetamide]
1 to 10 µM | CC(=O)NCC1CN(c2ccc(C(F)(F)F)cc2)c2ccccc2N1C (centres unmarked) [compound 19, N-((1-methyl-4-(4-(trifluoromethyl)phenyl)-1,2,3,4-tetrahydroquinoxalin-2-yl)methyl)acetamide]
> 10 µM | O=C(O)C1CCN(c2ccccc2Nc2ccc(C(F)(F)F)cc2)C(=O)C1 (centres unmarked) [compound 119, 2-oxo-1-(2-((4-(trifluoromethyl)phenyl)amino)phenyl)piperidine-4-carboxylic acid]
> 10 µM | FC(F)(F)c1ccc(N2CC3CN(c4ncco4)CCN3c3ccccc32)cc1 (centres unmarked) [compound 25, 2-(6-(4-(trifluoromethyl)phenyl)-1,2,4,4a,5,6-hexahydro-3H-pyrazino[1,2-a]quinoxalin-3-yl)oxazole]
< 1 µM | C=CC(=O)NCC1CN(c2ccc(C(F)(F)F)cc2)c2ccccc2N1CCCO (centres unmarked) [compound 5, N-((1-(3-hydroxypropyl)-4-(4-(trifluoromethyl)phenyl)-1,2,3,4-tetrahydroquinoxalin-2-yl)methyl)acrylamide]
< 1 µM | FC(F)(F)c1ccc(N2CCN(Cc3nnc[nH]3)c3ccccc32)cc1 [compound 50, 1-((4H-1,2,4-triazol-3-yl)methyl)-4-(4-(trifluoromethyl)phenyl)-1,2,3,4-tetrahydroquinoxaline]
< 1 µM | CC(=O)NCC1CN(c2ccc(C(F)(F)F)cc2)c2ccc(C(F)F)nc2O1 (centres unmarked) [compound 112, N-((6-(difluoromethyl)-1-(4-(trifluoromethyl)phenyl)-2,3-dihydro-1H-pyrido[2,3-b][1,4]oxazin-3-yl)methyl)acetamide]
